Experimental data as given in patent US20100094053A1, “USE OF PERSONAL CARE COMPOSITION” (CONOPCO, INC., D/B/A UNILEVER, priority 2008, published 2010).

Columns and labels:
[1] = biological target: T1, human recombinant CB1 receptor (Homo sapiens, UniProt P21554); assay: CB1 receptor inhibition binding assay ([3H]-CP-55,940 displacement)
T1 construct: expressed in transfected cells; host or cells: HEK-293
Protocol: (§1) Ki values were calculated by applying the Cheng-Prusoff equation to the IC50 values (obtained by GraphPad) for the displacement of the bound radioligand by increasing concentrations of the test compound.

[2] = biological target: T2, human recombinant CB2 receptor (Homo sapiens, UniProt P34972); assay: CB2 receptor inhibition binding assay ([3H]-CP-55,940 displacement); details: 0.084 nM [3H]-CP-55,940, 90 minutes at 30° C
T2 construct: expressed in transfected cells; host or cells: HEK-293
T2 sequence (P34972 whole entry): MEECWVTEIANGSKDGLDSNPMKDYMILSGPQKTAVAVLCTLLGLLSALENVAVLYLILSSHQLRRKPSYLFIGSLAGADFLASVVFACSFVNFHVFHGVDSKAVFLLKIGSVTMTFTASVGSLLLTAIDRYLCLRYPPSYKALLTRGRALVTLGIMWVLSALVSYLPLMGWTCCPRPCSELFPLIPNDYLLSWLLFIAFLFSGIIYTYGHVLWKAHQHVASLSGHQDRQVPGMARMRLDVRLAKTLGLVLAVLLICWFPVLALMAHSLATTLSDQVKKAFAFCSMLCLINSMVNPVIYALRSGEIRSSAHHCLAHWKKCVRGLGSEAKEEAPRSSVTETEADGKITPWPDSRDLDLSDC
Protocol: as §1

[3] = tested on: histamine induced scalp itch; assay: Clinical assessment of histamine induced scalp itch (histamine iontophoresis, half head study); assay type: in vivo, human; details: 1.5% v/v CMEA in ethanol, 30 μl patch on scalp for 24 h, then histamine iontophoresis
Protocol: Cocomonoethanolamide (CMEA) efficacy against itch was assessed using histamine iontophoresis. CMEA (1.5% v/v) was made up in 100% ethanol. The same concentration of ethanol was used as the vehicular control. A total of 31 subjects completed the randomised, double blind, half head clinical study. Volunteers were initially familiarised with the iontophoresis equipment and test protocol prior to study commencement. Following this phase, product application was commenced. Two sites were selected on each side of the head approximately halfway between the top of the ear and the apex of the head. An area of 2 cm^2 was carefully trimmed close to the scalp. Both the CMEA test solution and the ethanol control (30 μl each) were applied to a filter paper and placed in a 12 mm Finn chamber, which was attached the scalp with adhesive tape. Volunteers kept the patch in place for a period of 24 h. The chambers were then removed from the scalp and each application site received a histamine challenge via iontophoresis. Subjects scored perceived itch throughout the procedure by sliding an indicator up or down a Visual Analogue Score (VAS; calibrated in gradient fashion from 0 (none) to 100% (extremely intense)) to indicate itch intensity in real time. Data are expressed as the mean area under the curve+/−S.E. (standard error of the mean).

T1 sequence (P21554 whole entry): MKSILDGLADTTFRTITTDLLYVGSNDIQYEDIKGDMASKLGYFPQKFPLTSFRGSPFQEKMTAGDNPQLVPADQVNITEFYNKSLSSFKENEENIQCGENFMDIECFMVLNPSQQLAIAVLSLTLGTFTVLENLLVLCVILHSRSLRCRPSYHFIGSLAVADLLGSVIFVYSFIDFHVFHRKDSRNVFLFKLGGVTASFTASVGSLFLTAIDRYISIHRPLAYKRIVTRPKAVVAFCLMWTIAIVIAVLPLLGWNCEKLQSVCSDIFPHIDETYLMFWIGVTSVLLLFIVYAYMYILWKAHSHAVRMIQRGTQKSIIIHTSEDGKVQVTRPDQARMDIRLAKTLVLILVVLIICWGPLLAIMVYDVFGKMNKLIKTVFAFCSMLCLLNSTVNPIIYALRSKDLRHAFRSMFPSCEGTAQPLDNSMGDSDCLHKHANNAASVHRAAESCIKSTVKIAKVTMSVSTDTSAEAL

Cocomonoethanolamide [CMEA]
IC50 for displacement of [3H]-CP-55,940 at CB1 receptor ([1]; HEK-293 cells transfected with human recombinant CB1 receptor, 0.14 nM [3H]-CP-55,940, 90 minutes at 30° C): 5.08 µg/mL | Ki at CB1 receptor ([1]; calculated by Cheng-Prusoff equation from IC50, 0.14 nM [3H]-CP-55,940, 90 minutes at 30° C): 2.85 µg/mL | binding affinity, CB1R compared with CB2R ([1]; comparison of CB1 and CB2 binding data): higher for the CB1R than for CB2R | IC50 for displacement of [3H]-CP-55,940 at CB2 receptor ([2]; HEK-293 cells transfected with human recombinant CB2 receptor): 8.19 µg/mL | Ki at CB2 receptor ([2]; calculated by Cheng-Prusoff equation from IC50): 6.44 µg/mL | Visual Analogue Score (area under the curve; mean +/− S.E.M.) ([3]; 31 subjects): 74942 (9625) | reduction of perceived scalp itch ([3]; versus ethanol control, P<0.02): 16.6%
